The values below come from US9440967B2, “1H-pyrrolo [2, 3 -B] pyridine derivatives and their use as radical quenchers” (Arizona Board of Regents on Behalf of Arizona State …, priority 2012, dated 2016).

The test system of one experiment is CEM leukemia cells. The experiment in a line: Lipid peroxidation, C11-BODIPY581/591 oxidation in cell culture (FACS). It counts as cell-based, Human. The following applies: CEM cells pretreated 16 h with 2.5 and 5 μM compound, then 5 mM DEM 90 min; compared with α-tocopherol; FIG. 2. As to the method: FIG. 2. Comparison of the lipid peroxidation in CEM leukemia cells depleted of glutathione detected by utilizing the oxidation-sensitive fatty acid probe C-11 BODIPY^581/591 using flow cytometry. Increased C-11 BODIPY-green fluorescence (oxidized form), a measure of intracellular lipid peroxidation, was determined by increasing the geometric mean fluorescence intensity (GMFI) of C-11 BODIPY-green relative to the untreated control. A bar graph representing the percentage of the geometric mean fluorescence intensity (GMFI) of C-11 BODIPY-green fluorescence relative to a treated control is shown. Data are expressed as the mean±SEM (n=3). α-TOH is α-tocopherol.
Lipid peroxidation in CEM leukemia cells was detected by utilizing the oxidant-sensitive lipophilic probe C11 BODIPY^581/591. Briefly, CEM cells (5×10^5 cell/mL) were treated with the test compounds at final concentrations of 2.5 and 5 μM, and incubated at 37° C. for 16 h in a humidified atmosphere containing 5% CO2 in air. Cells were treated with 1 μMC11 BODIPY^581/591 in phenol red-free RPMI-1640 media and incubated at 37° C. in the dark for 30 minutes. The cells were washed twice with phosphate buffered saline and oxidative stress was induced with 5 mM DEM in phenol red-free RPMI-1640 media for 90 minutes. Treated cells were collected by centrifugation at 300×g for 3 minutes and then washed twice with phosphate buffered saline. Cells were re-suspended in 250 μL of phosphate buffered saline and were analyzed by FACS (FACS Calibur flow cytometer, Becton Dickinson) to monitor the change in intensity of the C11 BODIPY^581/591-green (oxidized) fluorescence signal. A total of 10000 events were recorded for each sample and analyzed with the CellQuest software (BD Biosciences). The results were verified by repeating the experiments in duplicate. Results are expressed as the relative percentage of treated control (DEM).

For a further experiment, the system named is CEM cells. Briefly: Trypan blue cell viability assay of DEM-treated cells. The following applies: CEM cells pretreated 16 h, then 5 mM DEM 5.5 h; FIG. 5. Type of experiment: cell-based, Human. As to the method:
FIG. 5. Trypan blue exclusion assay of CEM cells treated with test compounds for 16 h before exposure to 5 mM diethyl maleate for 5.5 h. At the time of assay, >80% of the DEM-treated cells were trypan blue positive, whereas in the non-DEM treated control, >95% of the cells were viable. Cell viability was expressed as the percentage of control. Results are an average of three independents trials. α-TOH is α-tocopherol.
Cell viability determined by trypan blue exclusion assay: This technique was used to assess the cytoprotective effects of the invention compounds in cultured cells pharmacologically treated to induce cell death by GSH depletion. DEM was used to deplete cellular GSH and induce oxidative stress. The viability of DEM-treated CEM cells was determined by their ability to exclude the dye trypan blue. Viable cells exclude trypan blue; whereas, non-viable cells take up the dye and stain blue. Briefly, CEM lymphoblasts (CCL-119) were grown in RPMI 1640 medium (GIBCO, Grand island, NY, USA) supplemented with 10% fetal calf serum, 2 mM glutamine (HyClone, South Logan, Utah, USA), 1% penicillin-streptomycin mix (Cellgro, Manassas, Va., USA). Cells were seeded at a density of 5×10^5 cells/mL and treated with different concentrations of the invention compounds. Cells were incubated at 37° C. in a humidified atmosphere of 5% CO2 in air for 16 hours. After pre-incubation, the cells were treated with 5 mM DEM for 5.5 h. Cell viability was determined by staining cells with 0.4% trypan blue using a hemacytometer. At least 500 cells were counted for each experimental group. At the time of assay, >80% of DEM-treated cells were trypan blue positive; whereas, in non-DEM treated control cell cultures>95% cells were viable. Cell viability was expressed as the percentage of control. Data are expressed as means±S.E.M (n=3).

Where a name gives a salt, the structure may show the parent alone.

As for `CCCCCCCCCCc1nc2c(c(C)c1O)CCN2C` [Compound 1b, 1,4-Dimethyl-6-decyl-2,3-dihydro-1H-pyrrolo[2,3-b]pyridin-5-ol trifluoro acetic acid salt], the “protection against lipid (membrane) peroxidation (C11-BODIPY-green fluorescence)” value in the experiment on CEM leukemia cells is “significantly better protection than was achieved with α-tocopherol”. The “cytoprotection (cell viability, trypan blue exclusion)” value with CEM cells was “more effective in cytoprotection than was α-TOH”.
Take `CCCCCCCCCCc1nc2c(c(C)c1OC(C)=O)CCN2C` [Compound 2b, 1,4-Dimethyl-6-decyl-2,3-dihydro-1H-pyrrolo[2,3-b]pyridin-5-yl acetate]: in the experiment on CEM leukemia cells, the “protection against lipid (membrane) peroxidation (C11-BODIPY-green fluorescence)” value is recorded as “results comparable to α-TOH”. Besides, in the experiment with CEM cells, the “cytoprotection (cell viability, trypan blue exclusion)” value is given as “more effective in cytoprotection than was α-TOH”.
